Test systems include DLD-1 colon; DMS 114 small cell lung; KM20L2 colon; LXFL 529 NSCLC; RXF-631 renal; SNB-78 CNS; XF 498 CNS; HOP-18 NSCLC; MDA-N; P388 leukemia; P388/ADR leukemia.
What all share (assay): NCI tumour cell line growth inhibition, 48 h

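Step 1: Grow cells in 96-well plates. Step 2: Expose to compound for 48 hours at 5 concentrations. Step 3: Interpolate endpoints linearly; if unreached, use highest concentration. At the GI50, growth is halved. The concentration for full growth arrest is given as TGI.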 Bounds are passed on as bounds.

For `NNC(=O)CCC(=O)Nc1cc(Cl)c(Cl)cc1Cl`, the TGI in the assay with DLD-1 colon, in the assay with DMS 114 small cell lung, with KM20L2 colon, in the assay on LXFL 529 NSCLC, with RXF-631 renal and with SNB-78 CNS was > 100 µM each time. The TGI in the assay with XF 498 CNS is > 100 µM.

As to `NC1=C(Br)C(=O)c2ncccc2C1=O`, the TGI was 1.98 µM with DLD-1 colon; 0.313 µM in the assay on DMS 114 small cell lung; 3.54 µM with KM20L2 colon; 0.8 µM in the assay on LXFL 529 NSCLC; 3.73 µM in the assay with RXF-631 renal; 2.48 µM with SNB-78 CNS. Moreover, the TGI in the assay on XF 498 CNS was 2.16 µM.

Take `C/C([O-])=C1\Cc2ccccc2C1=O.C/C([O-])=C1\Cc2ccccc2C1=O.CC[O-].CC[O-].[Ti+4]`: the GI50 was 18.7 µM in the assay on DLD-1 colon; 18.7 µM in the assay with DMS 114 small cell lung; 32.5 µM in the assay with HOP-18 NSCLC; 29.2 µM with KM20L2 colon; 12.3 µM in the assay on LXFL 529 NSCLC; 17.1 µM in the assay on MDA-N. Further, the GI50 in the assay with RXF-631 renal was 6.96 µM; in the assay on SNB-78 CNS it was 24 µM. In addition, the TGI with DLD-1 colon was > 100 µM; in the assay on DMS 114 small cell lung, 37.4 µM; with HOP-18 NSCLC it was 80 µM; with KM20L2 colon, > 100 µM; in the assay on LXFL 529 NSCLC, 35.5 µM; in the assay on MDA-N, 42.3 µM. Moreover, the figures for the TGI in the assay on RXF-631 renal and in the assay with SNB-78 CNS were 29.1 µM and > 100 µM, respectively.

On to `COCC1N=C(c2cc(OC)c(OC)c(OC)c2-c2cc3c(cc2C2OCCCO2)OCO3)O[C@H]1c1ccccc1` (stereo partly specified), for which the TGI with DLD-1 colon, in the assay with DMS 114 small cell lung and with KM20L2 colon was > 100 µM throughout.

As for `O=C(O)CCSCCCN1C(=O)c2ccccc2C1=O`, the TGI with DMS 114 small cell lung, with KM20L2 colon, with LXFL 529 NSCLC and in the assay on SNB-78 CNS was > 100 µM throughout.

With `CCc1ccccc1N1CCN(C(=O)c2cc(OC)c(OC)c(OC)c2)CC1`, the TGI in the assay with DLD-1 colon was > 100 µM; in the assay on DMS 114 small cell lung it was 0.692 µM; in the assay on HOP-18 NSCLC it was > 91.9 µM; in the assay on KM20L2 colon, 0.307 µM; in the assay on P388 leukemia, 0.367 µM; in the assay on P388/ADR leukemia, 4.22 µM. The TGI in the assay with SNB-78 CNS is > 100 µM; in the assay with XF 498 CNS, 17.9 µM.

On to `O=C(/C=C/c1ccc(Cl)c(Cl)c1)c1ccc(F)cc1`, for which the TGI with DLD-1 colon is 27.8 µM; with DMS 114 small cell lung, 30 µM; in the assay on HOP-18 NSCLC, 50.2 µM; with KM20L2 colon it was 35.2 µM; in the assay with LXFL 529 NSCLC, 27.7 µM; in the assay on RXF-631 renal, > 100 µM. In the assay with SNB-78 CNS, this compound registered a TGI of 41.1 µM.

In the case of `COC(=O)C1C2C=CC(C2)C1(C(=O)OC)S(=O)CC12CCC(CC1O)C2(C)C` (stereo unspecified), the TGI in the assay with DLD-1 colon, in the assay with DMS 114 small cell lung, in the assay with HOP-18 NSCLC, with KM20L2 colon, in the assay with LXFL 529 NSCLC and with RXF-631 renal was > 100 µM each time. The TGI with SNB-78 CNS and in the assay with XF 498 CNS was > 100 µM throughout.

For the compound `COc1ccc(C(Cc2cc(OC)c(OC)c(OC)c2)C(=O)O)cc1` (stereo unspecified), the TGI in the assay on DLD-1 colon, with DMS 114 small cell lung, in the assay on HOP-18 NSCLC, with KM20L2 colon, in the assay with RXF-631 renal and with SNB-78 CNS was > 100 µM each time. The TGI in the assay with XF 498 CNS is > 100 µM.

For the compound `CS(=O)(=O)OCCn1cnc2nc(NC(=O)c3ccccc3)[nH]c(=O)c21`, the TGI in the assay with DLD-1 colon, with DMS 114 small cell lung, with HOP-18 NSCLC, in the assay with KM20L2 colon, in the assay with LXFL 529 NSCLC and in the assay with RXF-631 renal was > 100 µM throughout. Moreover, in the assay with SNB-78 CNS, the TGI was > 100 µM.

For `O=C1C=C[C@@]23C[C@@H](Nc4c(O)c5c6c(c42)=NCCC=6C=N5)SC3=C1`, the GI50 is 1.74 µM with DLD-1 colon, 14.8 µM in the assay on HOP-18 NSCLC, 3.24 µM in the assay on SNB-78 CNS and 2.34 µM in the assay with XF 498 CNS. Further, the TGI came out at 3.22 µM with DLD-1 colon; 28.1 µM in the assay with HOP-18 NSCLC; 10.7 µM with KM20L2 colon; 3.24 µM in the assay with LXFL 529 NSCLC; 3.1 µM in the assay on MDA-N; 12.3 µM with SNB-78 CNS. This compound had a TGI with XF 498 CNS of 4.95 µM.

Take `O=C1Nc2ccccc2C1Cc1ccc([N+](=O)[O-])cc1` (stereo unspecified): the TGI in the assay on MDA-N was > 100 µM.

Regarding `Nc1c(Br)c(=O)[nH]c(=O)n1COCCO`, the TGI in the assay with DLD-1 colon, with DMS 114 small cell lung, with HOP-18 NSCLC, in the assay on LXFL 529 NSCLC, in the assay on RXF-631 renal and in the assay with SNB-78 CNS was > 100 µM in each case. The TGI in the assay with XF 498 CNS is > 100 µM.

For the compound `Cc1ccc(S(=O)(=O)NNC(=O)c2sc(-c3nc(C)c(C(=O)NNS(=O)(=O)c4ccc(C)cc4)s3)nc2C)cc1`, the TGI in the assay with DLD-1 colon, in the assay on KM20L2 colon, in the assay with LXFL 529 NSCLC and in the assay with SNB-78 CNS was > 100 µM in each case.

As to `Nc1ncnc2c1ncn2CC(O)C(=O)O` (stereo unspecified), the TGI with DLD-1 colon, in the assay on DMS 114 small cell lung, with HOP-18 NSCLC, with KM20L2 colon, in the assay on LXFL 529 NSCLC and in the assay on MDA-N was > 100 µM throughout.

As to `CC(/C(=N/NC(=O)C(N)=O)c1c(Cl)ccc(Cl)c1O)C1(O)C(=O)Nc2ccccc21` (stereo unspecified), the TGI in the assay on DLD-1 colon, with DMS 114 small cell lung, in the assay on HOP-18 NSCLC, in the assay on KM20L2 colon, in the assay with LXFL 529 NSCLC and in the assay on RXF-631 renal was > 100 µM throughout. For the same compound, the TGI in the assay with SNB-78 CNS was > 100 µM.

As to `CC1CC(c2cccc3c2OCO3)=Nc2ccccc2S1` (stereo unspecified), the TGI with DLD-1 colon, in the assay with DMS 114 small cell lung, in the assay with KM20L2 colon, in the assay on LXFL 529 NSCLC, with SNB-78 CNS and in the assay with XF 498 CNS was > 100 µM in each case.

Source of the values: PubChem BioAssay (NCI).
